Active and inactive are the calls of the source.

Results on 9 compounds are retold here after ChEMBL document CHEMBL1201862, “PubChem BioAssay data set” (2004).

The target of experiment [1] is T1, Aminopeptidase N (Plasmodium falciparum FcB1/Columbia, UniProt O96935).
T1 sequence (O96935 whole entry): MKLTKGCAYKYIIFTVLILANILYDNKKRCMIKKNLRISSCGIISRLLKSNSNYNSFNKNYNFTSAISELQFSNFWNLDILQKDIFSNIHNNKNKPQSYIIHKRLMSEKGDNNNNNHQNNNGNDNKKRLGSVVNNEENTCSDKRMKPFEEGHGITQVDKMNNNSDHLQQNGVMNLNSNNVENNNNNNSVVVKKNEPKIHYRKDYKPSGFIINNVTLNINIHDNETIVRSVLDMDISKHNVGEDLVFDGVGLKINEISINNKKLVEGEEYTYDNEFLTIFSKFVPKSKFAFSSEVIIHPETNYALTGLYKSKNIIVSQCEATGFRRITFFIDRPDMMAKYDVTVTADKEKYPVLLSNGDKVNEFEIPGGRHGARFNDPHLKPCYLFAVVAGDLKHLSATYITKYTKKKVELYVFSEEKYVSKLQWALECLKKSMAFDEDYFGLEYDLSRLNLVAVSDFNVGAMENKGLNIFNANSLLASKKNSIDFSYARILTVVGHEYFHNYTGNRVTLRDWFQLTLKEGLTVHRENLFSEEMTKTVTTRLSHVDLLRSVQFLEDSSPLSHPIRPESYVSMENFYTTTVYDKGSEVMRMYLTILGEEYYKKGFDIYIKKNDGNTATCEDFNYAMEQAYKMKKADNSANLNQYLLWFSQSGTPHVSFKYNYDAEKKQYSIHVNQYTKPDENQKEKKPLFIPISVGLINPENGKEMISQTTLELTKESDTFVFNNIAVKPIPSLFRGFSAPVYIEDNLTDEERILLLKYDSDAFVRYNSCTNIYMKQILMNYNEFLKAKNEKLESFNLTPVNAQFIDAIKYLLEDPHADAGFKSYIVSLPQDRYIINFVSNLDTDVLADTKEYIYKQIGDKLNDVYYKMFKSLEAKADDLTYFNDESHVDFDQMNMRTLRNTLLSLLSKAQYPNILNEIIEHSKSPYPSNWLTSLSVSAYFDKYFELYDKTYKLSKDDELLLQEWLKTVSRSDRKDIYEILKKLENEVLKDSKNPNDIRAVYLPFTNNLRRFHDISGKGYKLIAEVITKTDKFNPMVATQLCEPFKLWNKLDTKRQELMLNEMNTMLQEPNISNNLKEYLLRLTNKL
Nature of the experiment: P. falciparum M1AAP inhibitors, biochemical, fluorogenic H-Leu-NHMec substrate, 1536-well (AID 1445). Also on record: species or system Plasmodium falciparum 3D7, 3D7.

Experiment [2] is described as follows: cells. The class given is functional.
Experiment [3] addresses T2, Corticotropin-releasing factor receptor 2/Corticotropin-releasing factor-binding protein (Homo sapiens, UniProt P24387+Q13324).
T2 sequence (Q13324 whole entry): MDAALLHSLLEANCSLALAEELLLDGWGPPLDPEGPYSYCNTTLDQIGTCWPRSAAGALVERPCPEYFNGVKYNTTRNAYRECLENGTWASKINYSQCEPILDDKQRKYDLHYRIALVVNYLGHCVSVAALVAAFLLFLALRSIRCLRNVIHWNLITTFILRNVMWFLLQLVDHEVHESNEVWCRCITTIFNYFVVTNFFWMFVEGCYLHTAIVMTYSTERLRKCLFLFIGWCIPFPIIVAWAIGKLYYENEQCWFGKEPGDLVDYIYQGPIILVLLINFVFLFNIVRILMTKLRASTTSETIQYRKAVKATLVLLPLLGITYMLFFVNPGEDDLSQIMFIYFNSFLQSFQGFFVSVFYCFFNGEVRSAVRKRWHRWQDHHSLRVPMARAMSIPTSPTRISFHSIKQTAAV
T2 sequence (P24387 whole entry): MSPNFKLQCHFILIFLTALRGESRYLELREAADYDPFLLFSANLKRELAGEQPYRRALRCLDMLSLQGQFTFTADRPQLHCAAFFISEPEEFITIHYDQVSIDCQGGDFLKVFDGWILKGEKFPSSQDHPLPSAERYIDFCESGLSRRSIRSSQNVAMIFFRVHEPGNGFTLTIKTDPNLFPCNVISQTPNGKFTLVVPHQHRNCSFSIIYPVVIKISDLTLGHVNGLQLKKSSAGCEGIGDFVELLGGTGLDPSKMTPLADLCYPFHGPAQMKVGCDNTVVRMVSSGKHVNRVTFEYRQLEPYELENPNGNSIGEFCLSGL
Put plainly: activators of CRF receptor 2 with binding protein – uHTS hits, confirmation (AID 602473). Format: functional. To be noted: read-out: EC50_Mean.

Experiment [4] concerns the target T3, Fatty acid synthase (Homo sapiens, UniProt P49327). Nature of the experiment: FAS thioesterase domain inhibitors, dose response, biochemical, endpoint fluorescence intensity, uHTS hits (AID 624327).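 Also: fluorescence from hydrolysis of an O-methyl fluorescein acyl ester substrate by the enzyme.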 Format: functional.
Experiment [5] deals with T3, Fatty acid synthase. Put plainly: FAS thioesterase domain inhibitors, dose response, biochemical, kinetic fluorescence intensity (AID 624326).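 Also: rate of fluorescence rise from hydrolysis of a fluorogenic O-methyl fluorescein ester substrate.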 Format: functional.
Experiment [6] deals with T4, Microphthalmia-associated transcription factor (Homo sapiens, UniProt O75030).
T4 sequence (O75030 whole entry): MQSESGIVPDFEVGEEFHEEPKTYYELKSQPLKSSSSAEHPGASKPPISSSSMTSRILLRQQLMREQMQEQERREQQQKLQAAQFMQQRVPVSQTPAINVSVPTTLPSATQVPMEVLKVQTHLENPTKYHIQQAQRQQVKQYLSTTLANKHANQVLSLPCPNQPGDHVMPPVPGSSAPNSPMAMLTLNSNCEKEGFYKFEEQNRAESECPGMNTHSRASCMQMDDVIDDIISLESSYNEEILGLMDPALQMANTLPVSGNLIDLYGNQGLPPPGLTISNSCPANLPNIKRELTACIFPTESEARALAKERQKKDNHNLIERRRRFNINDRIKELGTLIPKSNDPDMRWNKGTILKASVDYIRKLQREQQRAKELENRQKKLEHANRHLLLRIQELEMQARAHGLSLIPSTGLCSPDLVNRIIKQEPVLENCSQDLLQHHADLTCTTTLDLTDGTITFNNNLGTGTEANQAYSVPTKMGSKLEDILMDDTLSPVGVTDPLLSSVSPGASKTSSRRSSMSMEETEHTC
Nature of the experiment: TRPM1 promoter luciferase signal decrease, dose response, MITF inhibitor project, cell-based, SK-MEL-5, cherry-picked, set 3 (AID 493073).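 Also: SK-MEL-5 melanoma cells with luciferase driven by the MITF target TRPM1 promoter.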 The class given is functional.

Experiment [7] concerns the target Large T antigen (Simian virus 40, UniProt P03070). Format: functional, Betapolyomavirus macacae.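 Also: Confirmatory-stage PubChem screen for compounds that inhibit SV40 T antigen.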
Experiment [8] deals with T5, Bcl-2-related protein A1 (Mus musculus, UniProt Q07440).
T5 sequence (Q07440 whole entry): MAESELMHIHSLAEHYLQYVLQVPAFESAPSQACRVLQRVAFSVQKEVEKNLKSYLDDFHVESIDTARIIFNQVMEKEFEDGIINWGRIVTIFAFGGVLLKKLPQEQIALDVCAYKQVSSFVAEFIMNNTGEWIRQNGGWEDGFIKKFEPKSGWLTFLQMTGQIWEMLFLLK
The class given is functional.

For experiment [9], the target named is T6, Ubiquitin-conjugating enzyme E2 N (Homo sapiens, UniProt P61088).
T6 sequence (P61088 whole entry): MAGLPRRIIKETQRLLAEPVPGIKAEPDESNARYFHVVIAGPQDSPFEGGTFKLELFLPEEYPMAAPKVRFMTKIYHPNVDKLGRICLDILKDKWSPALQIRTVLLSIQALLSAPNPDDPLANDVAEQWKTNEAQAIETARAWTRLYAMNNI
The class given is functional.

Experiment [10] concerns the target T6, Ubiquitin-conjugating enzyme E2 N. Format: functional. The source holds these as a separate data set.
Experiment [11] can be described thus: inhibitors of HIV Env-driven cell fusion, dose response, cherry-pick (AID 652057). The class given is functional, cell-based.
The nature of experiment [12]: ZM109 Env clade C HIV-1 fusion inhibitors, dose response, HeLa effector, CEM target cells, luciferase, cherry-pick (AID 652058). Format: functional, cell-based.
A short description of experiment [13]: inhibitors of clade B AD8 Env fusion, dose response, cell-based, cherry-pick (AID 652062).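 Also: luciferase signal from cell-cell fusion driven by HIV-1 clade B AD8 Env; potency is for inhibitors of fusion seen as a drop in luminescence.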 Format: functional.

T3 sequence (P49327 whole entry, the tested form may be a part): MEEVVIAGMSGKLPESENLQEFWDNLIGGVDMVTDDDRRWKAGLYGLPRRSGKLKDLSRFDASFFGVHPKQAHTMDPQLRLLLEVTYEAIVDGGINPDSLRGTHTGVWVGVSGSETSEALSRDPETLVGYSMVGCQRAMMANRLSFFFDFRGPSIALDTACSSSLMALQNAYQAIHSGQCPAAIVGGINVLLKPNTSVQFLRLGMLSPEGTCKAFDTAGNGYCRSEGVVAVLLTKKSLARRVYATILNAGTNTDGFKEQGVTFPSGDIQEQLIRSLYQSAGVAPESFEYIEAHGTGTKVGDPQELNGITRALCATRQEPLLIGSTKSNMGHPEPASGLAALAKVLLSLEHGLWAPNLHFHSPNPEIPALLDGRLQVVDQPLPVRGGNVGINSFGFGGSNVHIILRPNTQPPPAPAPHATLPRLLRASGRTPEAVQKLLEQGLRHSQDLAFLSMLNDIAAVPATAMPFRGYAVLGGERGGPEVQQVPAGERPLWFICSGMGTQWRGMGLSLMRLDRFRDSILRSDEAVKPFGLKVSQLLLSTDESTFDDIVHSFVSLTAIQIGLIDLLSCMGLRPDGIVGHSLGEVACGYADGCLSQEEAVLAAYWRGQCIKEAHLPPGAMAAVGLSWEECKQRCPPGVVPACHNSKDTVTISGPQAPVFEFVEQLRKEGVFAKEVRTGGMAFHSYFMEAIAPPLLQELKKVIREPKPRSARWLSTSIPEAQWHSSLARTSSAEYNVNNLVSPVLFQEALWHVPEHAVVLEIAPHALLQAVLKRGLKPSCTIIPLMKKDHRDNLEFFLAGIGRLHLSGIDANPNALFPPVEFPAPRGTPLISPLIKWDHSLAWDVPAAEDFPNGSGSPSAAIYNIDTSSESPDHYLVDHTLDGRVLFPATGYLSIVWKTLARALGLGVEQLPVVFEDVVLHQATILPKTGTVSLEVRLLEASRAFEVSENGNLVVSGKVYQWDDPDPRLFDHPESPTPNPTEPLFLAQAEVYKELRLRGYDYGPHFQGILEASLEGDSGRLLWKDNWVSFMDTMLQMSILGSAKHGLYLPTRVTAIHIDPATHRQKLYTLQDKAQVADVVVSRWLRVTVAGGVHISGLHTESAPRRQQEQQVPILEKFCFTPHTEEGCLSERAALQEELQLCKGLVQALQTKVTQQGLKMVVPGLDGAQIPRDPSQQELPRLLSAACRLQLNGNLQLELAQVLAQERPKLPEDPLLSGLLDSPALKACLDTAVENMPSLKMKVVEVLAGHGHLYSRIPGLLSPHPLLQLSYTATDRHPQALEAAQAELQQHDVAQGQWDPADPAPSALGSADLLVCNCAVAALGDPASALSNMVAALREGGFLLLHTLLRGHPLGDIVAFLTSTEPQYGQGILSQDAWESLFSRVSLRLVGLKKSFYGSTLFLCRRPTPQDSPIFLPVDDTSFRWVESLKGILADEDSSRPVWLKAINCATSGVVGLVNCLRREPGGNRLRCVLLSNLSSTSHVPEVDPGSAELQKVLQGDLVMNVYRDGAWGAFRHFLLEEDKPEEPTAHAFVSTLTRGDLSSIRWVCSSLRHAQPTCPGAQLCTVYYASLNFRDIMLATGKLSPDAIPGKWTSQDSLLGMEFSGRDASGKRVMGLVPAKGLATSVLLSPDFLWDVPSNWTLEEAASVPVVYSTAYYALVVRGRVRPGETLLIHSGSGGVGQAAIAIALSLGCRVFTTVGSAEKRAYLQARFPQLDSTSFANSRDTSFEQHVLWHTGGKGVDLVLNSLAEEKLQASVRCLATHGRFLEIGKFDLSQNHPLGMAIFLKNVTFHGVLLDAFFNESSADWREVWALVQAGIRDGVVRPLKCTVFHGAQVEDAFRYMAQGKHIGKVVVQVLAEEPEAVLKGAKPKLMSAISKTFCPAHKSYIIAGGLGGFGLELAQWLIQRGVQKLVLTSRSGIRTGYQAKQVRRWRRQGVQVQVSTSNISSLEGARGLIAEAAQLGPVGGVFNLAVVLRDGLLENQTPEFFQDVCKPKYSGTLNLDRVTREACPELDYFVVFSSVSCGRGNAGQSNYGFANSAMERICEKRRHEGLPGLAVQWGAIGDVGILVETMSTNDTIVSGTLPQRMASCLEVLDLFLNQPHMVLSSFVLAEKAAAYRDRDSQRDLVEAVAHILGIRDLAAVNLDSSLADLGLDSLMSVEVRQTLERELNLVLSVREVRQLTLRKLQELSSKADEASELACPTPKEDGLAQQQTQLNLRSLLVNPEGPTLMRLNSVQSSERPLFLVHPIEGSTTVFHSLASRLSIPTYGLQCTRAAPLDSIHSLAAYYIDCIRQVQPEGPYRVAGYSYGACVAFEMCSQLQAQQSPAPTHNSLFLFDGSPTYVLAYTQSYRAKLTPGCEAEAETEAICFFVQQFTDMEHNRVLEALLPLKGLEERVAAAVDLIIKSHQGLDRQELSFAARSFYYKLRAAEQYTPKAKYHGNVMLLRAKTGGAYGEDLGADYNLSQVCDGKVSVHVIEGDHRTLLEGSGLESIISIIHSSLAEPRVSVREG
Chain of Large T antigen (P03070 whole entry): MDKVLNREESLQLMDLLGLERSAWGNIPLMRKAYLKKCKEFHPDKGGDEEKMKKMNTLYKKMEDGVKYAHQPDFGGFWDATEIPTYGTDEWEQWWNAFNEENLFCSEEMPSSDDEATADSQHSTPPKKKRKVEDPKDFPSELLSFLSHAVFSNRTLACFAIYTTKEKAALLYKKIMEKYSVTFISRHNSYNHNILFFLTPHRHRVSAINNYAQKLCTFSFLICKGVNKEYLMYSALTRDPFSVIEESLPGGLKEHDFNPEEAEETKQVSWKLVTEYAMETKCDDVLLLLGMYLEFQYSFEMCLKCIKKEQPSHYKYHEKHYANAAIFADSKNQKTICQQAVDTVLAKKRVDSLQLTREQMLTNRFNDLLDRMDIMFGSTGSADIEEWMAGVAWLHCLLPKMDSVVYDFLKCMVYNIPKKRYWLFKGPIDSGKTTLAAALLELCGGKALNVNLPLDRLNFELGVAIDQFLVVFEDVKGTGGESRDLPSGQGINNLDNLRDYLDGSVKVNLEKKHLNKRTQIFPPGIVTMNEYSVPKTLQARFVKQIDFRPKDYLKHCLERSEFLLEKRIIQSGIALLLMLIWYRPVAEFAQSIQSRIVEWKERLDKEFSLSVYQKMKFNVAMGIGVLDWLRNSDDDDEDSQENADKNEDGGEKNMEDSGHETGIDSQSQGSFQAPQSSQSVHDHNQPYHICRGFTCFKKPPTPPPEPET

As usually defined, the IC50 is the midpoint of a concentration-inhibition curve. With `O=C1OC(/C(=C\Nc2cc(Cl)ccc2O)[N+](=O)[O-])c2ccccc21` (configuration not stated), the half-maximal inhibitory concentration (IC50) was 48.8 µM (active) in experiment [1] and 11.7 µM (active) in [2].
As for `CCCNC(=O)/C(=C/c1cn(S(=O)(=O)N(C)C)c2ccccc12)NC(=O)c1ccc(OC)cc1`, in experiment [3], the EC50 is 4.01 µM (active). Moreover, the IC50 in [4] is 4.86 µM (active); in [5] it was 6.75 µM (active).
In the case of `O=C1CCC(=O)N1c1nc2n(n1)C(c1ccccc1)C=C(c1ccc(Br)cc1)N2` (configuration not stated), the concentration for half-maximal inhibition (IC50) in experiment [1] was 69.7 µM (active).
For orientation: AC50 means the concentration giving half of the maximal activity seen. As for `CCN(CC)CCNC(=O)c1ccc(NC(=O)c2cccc(S(=O)(=O)N3c4ccccc4CC3C)c2)cc1` (configuration not stated), in [6], the AC50 is 10.5 µM (active).
For `CCN(CC)S(=O)(=O)c1ccc(C(=O)Oc2coc(CSc3nc(C)cc(C)n3)cc2=O)cc1`, in experiment [7], the IC50 was 40.4 µM (active).
Consider `O=C(CSc1nc2ccsc2c(=O)n1Cc1ccccc1)NCc1ccco1`, for which the IC50 was > 20 µM (inactive) in experiment [8], 18.1 µM (active) in experiment [9] and > 20 µM (inactive) in [10].
For `Cc1ccc(S(=O)(=O)N(C)C[C@@H]2Oc3ncc(/C=C/c4ccccc4)cc3C(=O)N([C@H](C)CO)C[C@@H]2C)cc1`, the values for the AC50 in experiment [11], in experiment [12] and in experiment [13] were 0.577 µM (active), 2.57 µM (active) and 3.55 µM (active), respectively.
For `O=C(C[C@H]1C=C[C@@H](NC(=O)Nc2ccccc2F)[C@@H](CO)O1)NCc1ccc(Cl)cc1`, the results for the AC50 in [11] and in experiment [13] were 3.07 µM (active) and 9.13 µM (active), respectively.
In the case of `Cc1nc(NS(=O)(=O)c2ccccc2)sc1C(=O)N/N=C/c1ccccc1`, in experiment [1], the concentration for half-maximal inhibition (IC50) was 50.1 µM (active).
